Measured values from US20080187935A1, “Homo and Heterodimer Proteins of the Abcg Family, Methods For Detection and Screening Modulators Thereof” (priority 2004, published 2008).
pEC50, pKi: −log10 of the molar value.

How the values were obtained:
[1] = target: T1, ABCG1/ABCG4 (Homo sapiens, UniProt P45844+Q9H172); assay: ATPase activity of co-expressed ABCG1/ABCG4 in Sf9 membranes; format: biochemical; settings: various concentrations, data not shown
T1 construct: made in house; host or cells: Sf9 insect cells co-infected with both baculoviruses, isolated membranes
Procedure: (§1) Recombinant baculoviruses carrying transporter cDNA were generated with BaculoGold Transfection Kit (Pharmingen), in accordance with the manufacturer's protocol. The titer of virus supernatants were determined in order to express the same amount of each proteins, Sf9 (Spodoptera frugiperda ovarian) cells (Invitrogen) were infected and cultured according to the procedures described previously (19). Briefly, about 3×10^7 cells were infected with 3 ml of virus supernatant in case of homodimer expression and 1.5-1.5 ml of virus supernatants in case of heterodimer expression. The virus-infected Sf9 cells were cultured in T150 culture flasks with 30 ml of medium for the times indicated. […]
(§2) The ATPase activity of the isolated Sf9 cell membranes was estimated by measuring inorganic phosphate liberation. Membrane suspensions (about 20 μg of membrane protein, as determined by a modified Lowry method) were incubated at 37° C. for 20-min in 0.15 ml of a medium containing 40 mM MOPS-Tris (pH 7.0), 0.5 mM EGTA-Tris (pH 7.0), 2 mM dithiothreitol, 50 mM KCl, 1 mM ouabain and 5 mM sodium azide, and the ATPase reaction was started by the addition of 3.3 mM MgATP. […] The reactions were stopped by the addition of 0.1 ml of 5% SDS solution and the amount of inorganic phosphate determined immediately. Inorganic phosphate was measured by colorimetric reaction (19). […]

[2] = target: T2, human ABCG4 (Homo sapiens, UniProt Q9H172); assay: vanadate-sensitive ATPase activity of ABCG4 in isolated Sf9 membranes; format: biochemical
T2 construct: made in house; host or cells: Sf9 insect cells (baculovirus), isolated membranes; cDNA from I.M.A.G.E. clone 1537140
T2 sequence (Q9H172 whole entry): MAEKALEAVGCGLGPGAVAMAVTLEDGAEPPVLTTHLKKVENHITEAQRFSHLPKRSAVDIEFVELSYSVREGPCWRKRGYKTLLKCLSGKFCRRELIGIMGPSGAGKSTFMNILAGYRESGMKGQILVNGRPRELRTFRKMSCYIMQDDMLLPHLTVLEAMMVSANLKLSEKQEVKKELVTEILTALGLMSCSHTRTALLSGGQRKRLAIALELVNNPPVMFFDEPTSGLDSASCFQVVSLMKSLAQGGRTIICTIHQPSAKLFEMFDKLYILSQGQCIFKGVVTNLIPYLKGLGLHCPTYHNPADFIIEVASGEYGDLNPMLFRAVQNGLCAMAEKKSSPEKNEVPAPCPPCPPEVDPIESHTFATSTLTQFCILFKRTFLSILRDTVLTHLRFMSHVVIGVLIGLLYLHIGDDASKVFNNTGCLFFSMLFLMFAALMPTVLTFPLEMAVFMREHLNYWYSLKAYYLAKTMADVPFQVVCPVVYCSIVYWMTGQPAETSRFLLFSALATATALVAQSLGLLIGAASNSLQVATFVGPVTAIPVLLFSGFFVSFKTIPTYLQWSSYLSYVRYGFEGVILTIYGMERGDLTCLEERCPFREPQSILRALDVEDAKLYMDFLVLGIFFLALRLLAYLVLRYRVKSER
Procedure: Recombinant baculoviruses carrying transporter cDNA were generated with BaculoGold Transfection Kit (Pharmingen), in accordance with the manufacturer's protocol. The titer of virus supernatants were determined in order to express the same amount of each proteins, Sf9 (Spodoptera frugiperda ovarian) cells (Invitrogen) were infected and cultured according to the procedures described previously (19). Briefly, about 3×10^7 cells were infected with 3 ml of virus supernatant in case of homodimer expression and 1.5-1.5 ml of virus supernatants in case of heterodimer expression. The virus-infected Sf9 cells were cultured in T150 culture flasks with 30 ml of medium for the times indicated. […] The supernatant fluid was then centrifuged for 60 min at 100,000×g and the pellet containing the membranes resuspended in TMEP at a protein concentration of 2-3 mg/ml. All procedures were carried out at 4° C., and the membranes were stored at −70° C. The ATPase activity of the isolated Sf9 cell membranes was estimated by measuring inorganic phosphate liberation. […] The indicated drugs (obtained from Sigma) were added in dimethyl sulfoxide. The final concentration of dimethyl sulfoxide in the assay medium was 1%. […] The reactions were stopped by the addition of 0.1 ml of 5% SDS solution and the amount of inorganic phosphate determined immediately. Inorganic phosphate was measured by colorimetric reaction (19). […]

[3] = target: T3, human ABCG1 (Homo sapiens, UniProt P45844); assay: vanadate-sensitive ATPase activity of ABCG1 in isolated Sf9 membranes; format: biochemical; settings: for effect on ABCG1 ATPase activity (in words): Sf9 membranes, 3.3 mM MgATP
T3 construct: made in house; host or cells: Sf9 insect cells (baculovirus), isolated membranes
Procedure: Recombinant baculoviruses carrying transporter cDNA were generated with BaculoGold Transfection Kit (Pharmingen), in accordance with the manufacturer's protocol. The titer of virus supernatants were determined in order to express the same amount of each proteins, Sf9 (Spodoptera frugiperda ovarian) cells (Invitrogen) were infected and cultured according to the procedures described previously (19). Briefly, about 3×10^7 cells were infected with 3 ml of virus supernatant in case of homodimer expression and 1.5-1.5 ml of virus supernatants in case of heterodimer expression. The virus-infected Sf9 cells were cultured in T150 culture flasks with 30 ml of medium for the times indicated. The cells were harvested by scraping them into Tris-mannitol buffer (50 mM Tris, pH 7.0, with HCl, containing 300 mM mannitol and 0.5 mM phenylmethylsulfonyl fluoride).
For membrane preparation the cells were lysed and homogenized using a glass-Teflon tissue homogenizer in TMEP (50 mM Tris, pH 7.0, with HCl, containing 50 mM mannitol, 2 mM EGTA-Tris, 10 µg/ml leupeptin, 8 µg/ml aprotinin, 0.5 mM phenylmethylsulfonyl fluoride, and 2 mM dithiothreitol), and the undisrupted cells and nuclear debris were removed by centrifugation at 500×g for 10 min. The supernatant fluid was then centrifuged for 60 min at 100,000×g and the pellet containing the membranes resuspended in TMEP at a protein concentration of 2-3 mg/ml. All procedures were carried out at 4° C., and the membranes were stored at −70° C.
The ATPase activity of the isolated Sf9 cell membranes was estimated by measuring inorganic phosphate liberation. Membrane suspensions (about 20 μg of membrane protein, as determined by a modified Lowry method) were incubated at 37° C. for 20-min in 0.15 ml of a medium containing 40 mM MOPS-Tris (pH 7.0), 0.5 mM EGTA-Tris (pH 7.0), 2 mM dithiothreitol, 50 mM KCl, 1 mM ouabain and 5 mM sodium azide, and the ATPase reaction was started by the addition of 3.3 mM MgATP. The indicated drugs (obtained from Sigma) were added in dimethyl sulfoxide. The final concentration of dimethyl sulfoxide in the assay medium was 1%. […] The reactions were stopped by the addition of 0.1 ml of 5% SDS solution and the amount of inorganic phosphate determined immediately. Inorganic phosphate was measured by colorimetric reaction (19). The points plotted in the figures indicate the means of triplicate determinations.

[4] = target: T4, ABCG2R482G (Homo sapiens, UniProt Q9UNQ0, R482G); settings: Özvegy C et al., 2001, cited from earlier work
T4 construct: host or cells: Sf9 membranes
T4 sequence (Q9UNQ0 1-655 R482G): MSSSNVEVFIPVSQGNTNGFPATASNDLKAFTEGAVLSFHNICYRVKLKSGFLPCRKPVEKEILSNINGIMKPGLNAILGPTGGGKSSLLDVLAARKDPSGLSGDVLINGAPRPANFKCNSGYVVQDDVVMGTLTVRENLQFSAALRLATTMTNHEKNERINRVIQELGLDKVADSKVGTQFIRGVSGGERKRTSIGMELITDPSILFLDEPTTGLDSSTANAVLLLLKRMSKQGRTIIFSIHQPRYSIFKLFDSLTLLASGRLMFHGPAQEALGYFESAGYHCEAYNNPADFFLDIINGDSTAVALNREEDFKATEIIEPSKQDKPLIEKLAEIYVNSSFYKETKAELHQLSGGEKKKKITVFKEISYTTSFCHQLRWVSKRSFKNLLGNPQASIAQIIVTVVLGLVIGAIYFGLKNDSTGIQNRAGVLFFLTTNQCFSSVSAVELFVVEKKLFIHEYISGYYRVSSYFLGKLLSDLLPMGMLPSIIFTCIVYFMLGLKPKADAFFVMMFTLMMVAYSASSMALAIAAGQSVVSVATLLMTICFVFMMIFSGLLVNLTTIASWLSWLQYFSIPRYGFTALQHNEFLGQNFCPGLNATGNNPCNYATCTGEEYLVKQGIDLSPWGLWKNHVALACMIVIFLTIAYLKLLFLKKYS

[5] = target: T5, ABCG1K124M (Homo sapiens, UniProt P45844, K124M); assay: ATPase activity of catalytic site mutant ABCG1K124M in Sf9 membranes; format: biochemical; settings: data not shown
T5 construct: made in house; host or cells: Sf9 insect cells (baculovirus), isolated membranes
Procedure: as §1, §2

In the case of Nc1c(O)cccc1C(=O)C[C@H](N)C(=O)O [3-OH kynurenine, 3-OH-kynurenine], the “effect on ATPase activity of co-expressed ABCG1/ABCG4 (in words)” value [1] was “could not detect a change in activity”, the “effect on ABCG4 ATPase activity (in words)” value [2] was “could not detect a change in activity” and the “effect on ABCG1 ATPase activity (in words)” value [3] was “could not detect a change in activity”.
For COc1ccc2c3c([nH]c2c1)[C@H](CC(C)C)N1C(=O)[C@H](CCC(=O)OC(C)(C)C)NC(=O)[C@@H]1C3 [Ko143], the “effect on ABCG1 ATPase activity (in words)” value [3] was “no effect”.
In the case of Nc1ncnc2c1ncn2[C@@H]1O[C@H](COP(=O)(O)OP(=O)(O)OP(=O)(O)O)[C@@H](O)[C@H]1O [ATP], the Km ([4]; read-out: Km for ATP) is given as about 600 µM and the Km ([3]; with or without 100 μM rhodamine123, read-out: Km for ATP) is given as about 500 µM.
With N[C@@H](Cc1cc(I)c(Oc2cc(I)c(O)c(I)c2)c(I)c1)C(=O)O [L-thyroxine] the “effect on ABCG1 ATPase activity (in words)” value [3] was “inhibited ABCG1”.
Work on NC(=NCc1ccccc1)NC(=O)c1nc(Cl)c(N)nc1N [Benzamil, benzamil] yielded a pKi ([3]; inhibition of ABCG1 ATPase activity) of about 6.30.
For rhodamine123, the “stimulation of ABCG2R482G mutant ATPase activity” value [4] is listed as “about 1.4 fold”, the “effect on ABCG4 ATPase activity (in words)” value [2] is listed as “no effect” and the “increase of ATPase activity of ABCG1” value ([3]; 20 μM rhodamine123) is listed as “increased almost two fold”. The “rhodamine123 stimulated ATPase activity” value ([3]; ABCG1 co-expressed with β-Gal, 100 μM rhodamine123, units = nanomoles Pi/mg membrane protein/min, basal 19.2±1.24, SEM, n=3) was 33.6±0.65 units, the “effect on ABCG1 ATPase activity (in words)” value [3] was “substantially stimulate” and the pEC50 ([3]; stimulation of ABCG1 ATPase activity, read-out: Kact) was about 5.00. For the same compound, the “effect on ABCG1K124M ATPase activity (in words)” value [5] was “negligible”.
With cyclosporin A the “effect on ABCG1 ATPase activity (in words)” value [3] was “inhibited ABCG1 ATPase activity at low concentrations”.
